In patent publication US8642559B2, “C-terminal domain truncation of mGluR1α by calpain and uses thereof” (priority 2006, dated 2014):
Values belong to the compound of their own block, whether it stands above or below them. Where a SMILES comes first, the peptide text is derived from it. The star is where a group is joined. Cbz = O=C(OCc1ccccc1)*

Columns and labels:
mGluR1α [1] = experiment: Glutamate/NMDA-induced C-terminal truncation of mGluR1α in cultured cortical neurons (immunoblot); assay type: cell-based; conditions: for block of glutamate-induced truncation of mGluR1α: glutamate 100 μM, antagonist 100 μM
Description: Total cell lysates were separated by SDS-PAGE and probed with an antibody against the carboxyl terminus (residue 1142-1160) of mGluR1α. […] Total cell lysates were probed with an anti-myc antibody. […] Total cell lysates were probed with antibodies against mGluR5, G1uR2/3 and VGluT1 respectively.
Total cell lysate was collected immediately after treatment and subjected to SDS-PAGE and immunoblotting with an antibody against the carboxyl terminus (residues 1142-1160) of mGluR1α (FIG. 2A). […] Neurons were transfected with a calcium phosphate precipitation method modified for high transfection rate (Jian et al., Gene Ther 11:1301-1311, 2004).
Cortical neurons were treated with NMDA at the indicated concentrations for 1 h or treated with NMDA (10 μM) for the indicated times. Total cell lysates were separated by SDS-PAGE and probed with antibodies against mGluR1α1142-1160, Results were normalized over control values and are means±s.e.m. of 4 experiments.
To determine whether activation of mGluR1α itself was required for the truncation, two distinct mGluR1α antagonists were applied.
To further characterize NMDA-induced mGluR1α truncation, the concentration- and time-dependencies of the effects of NMDA were studied. Cortical neurons were first incubated with different concentrations of NMDA for a fixed period of time (1 hour) (FIG. 3F). […] In a following experiment, cortical neurons were incubated with 10 μM NMDA for different durations ranging from 1 to 60 min (FIG. 3G).
Cortical neurons were treated with NMDA (10 μM, 1 h). Total cell lysates were separated by SDS-PAGE and probed with antibodies against spectrin and mGluR1α1142-1160, respectively. Only the degradation bands of spectrin (spectrin DB, at ˜145 KD) are shown. […] In FIG. 4C, purified myc-mGluR1α was digested with μ-calpain at the indicated concentrations (U/ml) for 30 min. The digested material was processed for SDS-PAGE and subjected to silver staining or immunoblots with anti-myc or anti-mGluR1α1142-1160 antibodies. […] The 1st lane was the myc-mGluR1α immunoprecipitated from 293 cells; the 2nd and 3rd lanes were immunoprecipitated myc-mGluR1α digested with indicated concentration of calpain. […] FIG. 4F is the alignment of mGluR1 (902-941) and mGluR5 (889-927) surrounding the calpain cleavage site.
In this set of experiments, we determined which protease(s) mediated NMDA-induced truncation of mGluR1α. […] Cortical neurons were pretreated with a calpain inhibitor, the cell-permeable calpain-inhibitor III, or the caspase inhibitor cpm-VAD-CHO for 2 hours and then incubated in the absence or presence of 100 µM NMDA for 1 hour. […] To further confirm calpain activation by NMDA under our experimental conditions, we determined the levels of the calpain-specific spectrin degradation fragments.

Phospho Akt (Ser473) = experiment: Akt phosphorylation (Ser473) in cortical neurons (Western blot); assay type: cell-based; conditions: DHPG 50 μM; for phosphorylated Akt levels: 10 min
Procedure: (§1) Representative current traces recorded from HEK293 cells transfected with either myc-mGluR1α (left panel) or myc-mGluR1α936Δ (right panel) and GIRK1, GIRK2 (top) or TRPC1 (bottom). DHPG (100 μM in extracellular solution) was applied using a fast perfusion system for the duration indicated by the scale bars. Each trace is the average of 5 continuous sweeps. The bar graphs represent the means±S.E.M. of DHPG-induced current amplitude recorded in cells transfected with myc-mGluR1α or myc-mGluR1α936Δplus GIRK1, GIRK2 (top right) or TRPC1 (bottom right) (n=3-7). In FIG. 6B, cortical neurons were pre-treated with NMDA (50 1μM, 1 h). Two hours after washing NMDA, neurons were treated with the mGluR1 agonist DHPG (50 μM) for 10 min in the absence or presence of LY367385. Total cell lysates were collected and probed with anti-Phospho Akt (Ser473) antibody. Without pretreatment with NMDA, DHPG increased the levels of Phospho-Akt (* p<0.05), an effect blocked by LY367385.
As reported in previous studies, mGluR1 activation can stimulate the PI3K-Akt signaling pathway through the mGluRI-Homer-PIEL-PI3K signaling complex. Since the Homer-binding domain of mGluR1α is located in the extreme C-terminus, which is removed after calpain-mediated truncation, it was interesting to determine whether this signaling mechanism remained functional. We first induced mGluR1α truncation by treating cortical neurons with 50 μM NMDA for 1 hour. Two hours after washing out NMDA, neurons were incubated with the mGluRI agonist DHPG (50 μM) for 10 min. Neurons were then lysed and levels of phosphorylated Akt were determined on Western blots. Consistent with a previous study, in cortical neurons that were not pre-treated with NMDA, DHPG induced an increase in phosphorylated Akt levels (p<0.05, n=4, Student's t-test for Control vs. DHPG), an effect which was blocked by the mGluR1 selective antagonist LY367385 (p<0.05, n=4, for DHPG+LY367385 vs. DHPG) (FIG. 6B). […] Thus, mGluR1α-PI3K-Akt signaling pathway was disrupted by calpain-mediated mGluR1α truncation.

myc-mGluR1α [2] = biological target: T1, myc-mGluR1α (Rattus norvegicus, UniProt P23385); experiment: DHPG-induced whole-cell currents in HEK293 cells transfected with myc-mGluR1α; assay type: cell-based; conditions: 100 μM DHPG
T1 sequence (P23385 19-1199): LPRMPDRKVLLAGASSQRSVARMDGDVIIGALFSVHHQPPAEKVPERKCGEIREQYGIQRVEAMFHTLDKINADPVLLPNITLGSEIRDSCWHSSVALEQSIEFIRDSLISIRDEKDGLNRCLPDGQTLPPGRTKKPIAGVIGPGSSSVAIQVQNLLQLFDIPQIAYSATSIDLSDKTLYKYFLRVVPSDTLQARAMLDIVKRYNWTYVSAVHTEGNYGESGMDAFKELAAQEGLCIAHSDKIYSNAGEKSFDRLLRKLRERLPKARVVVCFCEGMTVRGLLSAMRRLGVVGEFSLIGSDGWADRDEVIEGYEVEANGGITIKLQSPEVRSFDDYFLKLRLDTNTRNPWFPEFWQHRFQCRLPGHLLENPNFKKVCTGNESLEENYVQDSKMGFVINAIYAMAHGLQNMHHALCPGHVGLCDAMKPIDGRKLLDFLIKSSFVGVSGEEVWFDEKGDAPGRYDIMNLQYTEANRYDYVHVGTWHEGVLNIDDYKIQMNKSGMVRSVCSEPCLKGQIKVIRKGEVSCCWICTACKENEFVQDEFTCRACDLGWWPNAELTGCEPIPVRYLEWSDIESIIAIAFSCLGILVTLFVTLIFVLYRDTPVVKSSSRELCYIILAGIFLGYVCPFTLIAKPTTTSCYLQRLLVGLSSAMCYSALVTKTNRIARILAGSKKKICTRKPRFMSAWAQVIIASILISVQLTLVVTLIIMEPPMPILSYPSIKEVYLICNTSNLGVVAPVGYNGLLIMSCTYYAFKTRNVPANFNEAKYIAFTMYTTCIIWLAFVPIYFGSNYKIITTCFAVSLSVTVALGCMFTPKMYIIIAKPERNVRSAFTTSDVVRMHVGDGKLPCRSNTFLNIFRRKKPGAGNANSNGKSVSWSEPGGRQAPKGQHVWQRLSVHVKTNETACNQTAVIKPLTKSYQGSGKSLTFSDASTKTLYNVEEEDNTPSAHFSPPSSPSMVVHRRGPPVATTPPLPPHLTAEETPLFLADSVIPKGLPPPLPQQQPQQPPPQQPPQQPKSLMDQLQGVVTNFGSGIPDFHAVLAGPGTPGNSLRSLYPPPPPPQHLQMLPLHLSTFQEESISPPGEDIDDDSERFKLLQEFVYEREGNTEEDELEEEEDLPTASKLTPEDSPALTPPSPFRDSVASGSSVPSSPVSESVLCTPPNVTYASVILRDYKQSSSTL
Procedure: as §1, with “antibody.” for “antibody. Without pretreatment with NMDA, DHPG increased the levels of Phospho-Akt (* p<0.05), an effect blocked by LY367385.”
(§2) Because activation of mGluR1α can also stimulate non-selective cation excitatory postsynaptic conductances (EPSCs), we therefore analyzed mGluR1α-dependent currents before and after calpain-mediated truncation. We transfected HEK293 cells with either myc-mGluR1α or myc-mGluR1α936Δ plus GIRK1, GIRK2 or TRPC1.

myc-mGluR1α936Δ = myc-mGluR1α936Δ (Rattus norvegicus, UniProt P23385); experiment: DHPG-induced whole-cell currents in HEK293 cells transfected with myc-mGluR1α936Δ; assay type: cell-based; conditions: 100 μM DHPG
Sequence of myc-mGluR1α936Δ (P23385 19-936 limits assumed, stated change not applied): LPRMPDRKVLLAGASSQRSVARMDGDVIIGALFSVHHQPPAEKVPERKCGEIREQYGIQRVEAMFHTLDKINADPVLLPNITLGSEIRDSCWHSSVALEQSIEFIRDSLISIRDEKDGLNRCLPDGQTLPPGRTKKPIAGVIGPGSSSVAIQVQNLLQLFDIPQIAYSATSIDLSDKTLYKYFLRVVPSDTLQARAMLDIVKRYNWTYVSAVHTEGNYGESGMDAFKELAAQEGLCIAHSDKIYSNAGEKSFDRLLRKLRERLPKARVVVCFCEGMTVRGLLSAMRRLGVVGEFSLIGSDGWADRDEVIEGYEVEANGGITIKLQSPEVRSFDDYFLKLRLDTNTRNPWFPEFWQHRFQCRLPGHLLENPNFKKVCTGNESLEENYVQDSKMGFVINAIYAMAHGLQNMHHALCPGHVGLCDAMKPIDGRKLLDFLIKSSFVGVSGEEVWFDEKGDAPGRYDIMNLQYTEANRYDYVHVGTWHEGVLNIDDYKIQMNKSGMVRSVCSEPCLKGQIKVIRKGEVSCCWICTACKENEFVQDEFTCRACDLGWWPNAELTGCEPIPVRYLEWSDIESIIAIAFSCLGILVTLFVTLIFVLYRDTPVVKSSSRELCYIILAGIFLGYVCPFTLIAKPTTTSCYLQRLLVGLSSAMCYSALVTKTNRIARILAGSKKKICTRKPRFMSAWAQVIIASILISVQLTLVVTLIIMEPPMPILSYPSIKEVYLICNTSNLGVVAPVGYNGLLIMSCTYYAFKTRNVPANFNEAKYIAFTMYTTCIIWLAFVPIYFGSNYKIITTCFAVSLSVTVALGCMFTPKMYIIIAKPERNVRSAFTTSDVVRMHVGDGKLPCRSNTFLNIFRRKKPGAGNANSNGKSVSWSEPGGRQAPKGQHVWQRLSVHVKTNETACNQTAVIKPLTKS
Procedure: as §1, with “antibody.” for “antibody. Without pretreatment with NMDA, DHPG increased the levels of Phospho-Akt (* p<0.05), an effect blocked by LY367385.”
as §2

cortical neurons = experiment: NMDA/DHPG neuronal toxicity in cortical neurons (EthD-1/Calcein AM live/dead); assay type: cell-based; conditions: for cell death: 24 hours after
Description: In FIGS. 8a and b, cortical neurons were co-transfected with green fluorescent protein (GFP) and vector DNA, myc-mGluR1α or myc-mGluR1α936Δ, respectively. […] Twelve hours later, neurons were stained with EthD-1 to label dead cells. Arrowheads in FIG. 8a indicate EthD-1 positive GFP-expressing neurons. * p<0.05. FIGS. 8c and d are representative photos and bar graphs showing differential roles of endogenous mGluR1 in neuronal toxicity before and after NMDA-induced truncation. Cortical neurons were treated as indicated and were stained with EthD-1 (for dead cells) and calcein AM (for live cells) 24 hours later. * p<0.001.
We then tested whether calpain-mediated truncation of endogenous mGluR1α also alters its roles in excitotoxicity. We used NMDA to elicit mGluR1α truncation and evaluated the roles of mGluR1 in neuronal toxicity by applying DHPG before and after truncation. Fourteen DIV cortical neurons cultured on 18×18 mm coverslips were divided into 6 groups, which received the following treatments, respectively: 1) “Control”: vehicle; 2) “NMDA”: 100 μM NMDA for 1 hour; 3) “DHPG before NMDA”: DHPG, 100 μM, for 1 hour, followed by 100 μM NMDA for 1 hour; 4) “DHPG after NMDA”: NMDA, 100 μM, for 1 hour, followed by 100 μM DHPG for 1 hour; 5) “DHPG+LY before NMDA”: 100 μM DHPG was co-applied with 100 μM LY367385 for 1 hour and followed by 100 μM NMDA for 1 hour; 6) “DHPG+LY after NMDA”: NMDA 100 μM for 1 hour, followed by 100 μM DHPG co-applied with 100 μM LY367385. Twenty-four hours after treatment, all neurons were stained for 20 minutes with 0.5 μM EthD-1 to label dead cells and 2 μM Calcein AM to label live cells. After three washes with culture medium, coverslips were mounted and one microscopy photo was immediately taken from the center area of each coverslip. EthD-1 and Calcein AM positive cells on each photo were then counted. The percentage of cell death was calculated as the number of EthD-1 positive cell/(number of EthD-1 positive cell+number of Calcein AM positive cell)*100%.

myc-mGluR1α [3] = biological target: T1, myc-mGluR1α; experiment: DHPG-induced calcium transients in HEK293 cells transfected with myc-mGluR1α (calcium imaging); assay type: cell-based; conditions: 100 μM DHPG; myc-mGluR1α-transfected HEK293 cells
Description: (§3) In this set of experiments, HEK293 cells were co-transfected with DsRed (red fluorescent protein) and wild-type myc-mGluR1α or truncated myc-mGluR1α936Δ. The mGluRI agonist DHPG was used to induce mGluR1α-mediated calcium transients. In FIG. 5A, photos in the left show the expression of DsRed, labeling transfected cells; photos in the middle illustrate the fluorescent signal from the calcium indicator Oregon green 488 BAPTA-1 AM before and after DHPG application; photos in the right are obtained by subtracting “before DHPG” from “after DHPG”, thus representing DHPG-induced calcium transients.
(§4) The main signaling mechanism activated by mGluR1α consists of PI hydrolysis through G-protein and phospholipase C, which eventually leads to calcium release from internal calcium stores. Therefore we first performed calcium imaging to determine whether mGluR1α remains functional following C-terminal truncation. Wild-type mGluR1 (myc-mGluR1α) or the truncated form (myc-mGluR1α936Δ) was cotransfected with DsRed into HEK293 cells. Forty-eight hours after transfection, cells were loaded with a calcium reporter, Oregon green 488 BAPTA-1 AM (0.63% in extracellular solution).

myc-mGluR1α [4] = experiment: as above; assay type: cell-based; conditions: 100 μM DHPG; untransfected cells
Description: as §3, §4

spectrin = experiment: NMDA-induced calpain-specific spectrin degradation (145 kD fragment) in cortical neurons; assay type: cell-based; conditions: NMDA 10 μM, 1 h
Procedure: In this set of experiments, we determined which protease(s) mediated NMDA-induced truncation of mGluR1α. […] Cortical neurons were pretreated with a calpain inhibitor, the cell-permeable calpain-inhibitor III, or the caspase inhibitor cpm-VAD-CHO for 2 hours and then incubated in the absence or presence of 100 M NMDA for 1 hour. […] To further confirm calpain activation by NMDA under our experimental conditions, we determined the levels of the calpain-specific spectrin degradation fragments.

hippocampal neurons = experiment: Kainic acid-induced neuronal damage (silver staining) and seizures in mice; assay type: in vivo; conditions: kainic acid 30 mg/kg s.c., mice, 7 days, silver staining
Procedure: (§5) The tat-peptide was injected i.p. 90 min before kainic acid injection. Note that the peptide had no effect on seizure intensity (bottom left).
They were sacrificed after 7 days and brains processed for silver staining, a marker of cell damage. Note the heavy labeling of the pyramidal cell layer in the KA alone group.
The effect of the tat-mGluR1 peptide on kainic acid-induced neuronal damage was also evaluated.

mGluR1α [5] = experiment: In vivo truncation of mGluR1α in hippocampus after kainic acid injection; conditions: kainic acid 30 mg/kg s.c., mice
Procedure: as §5
The objective of this set of experiments was to verify that the feedback mechanism of the present invention could take place in vivo and participate in excitotoxicity. We used the kainic acid model of excitotoxicity, as this model has been widely used to study the mechanisms underlying in vivo excitotoxicity (Wang et al. Mol Neurobiol 31:3-16, 2005). Mice were injected with kainic acid and sacrificed at different times after injection. Levels of mGluR1α were determined in hippocampus with both Western blots and immunohistochemistry (FIG. 10).

[6] = 100 μM LY367385 co-applied with 100 μM DHPG

SMILES: N[C@@H](CCCP(=O)(O)O)C(=O)O [APV]
- block of glutamate-induced truncation of mGluR1α (mGluR1α [1]; 1 h): completely blocked

SMILES: N#Cc1cc2[nH]c(=O)c(=O)[nH]c2cc1[N+](=O)[O-] [CNQX]
- block of glutamate-induced truncation of mGluR1α (mGluR1α [1]; 1 h): had no effect

SMILES: N[C@H](C(=O)O)c1cc(O)cc(O)c1 [DHPG]
- phosphorylated Akt levels (Phospho Akt (Ser473); 2 h after NMDA 50 μM 1 h pre-treatment): failed to increase
- phosphorylated Akt levels (Phospho Akt (Ser473); neurons not pre-treated with NMDA): increase
- average amplitude of DHPG-induced whole-cell current (myc-mGluR1α [2]; myc-mGluR1α/GIRK1,2-transfected cells): −24.2±6.3 pA
- mean amplitude of DHPG-induced whole-cell current (myc-mGluR1α [2]; myc-mGluR1α/TRPC1-transfected cells): −36.7±9.6 pA
- mean amplitude of DHPG-induced whole-cell current (myc-mGluR1α936Δ; myc-mGluR1α936Δ/GIRK1,2-transfected cells): −1.4±0.8 pA
- mean amplitude of DHPG-induced whole-cell current (myc-mGluR1α936Δ; myc-mGluR1α936Δ/TRPC1-transfected cells): −9.7±6.8 pA
- cell death (cortical neurons; DHPG 100 μM 1 hour after 100 μM NMDA 1 hour): 54%
- cell death (cortical neurons; DHPG 100 μM 1 hour before 100 μM NMDA 1 hour): 29%
- calcium transient, max. ΔF/F (myc-mGluR1α [3]): 30.6±4.2%
- change in fluorescent calcium signals (myc-mGluR1α [4]): no change

SMILES: Cc1cc(C(=O)O)ccc1[C@H](N)C(=O)O [LY367385]
- block of DHPG-induced increase in phosphorylated Akt (Phospho Akt (Ser473); 10 min in presence of LY367385): blocked
- block of the neuroprotective effect of DHPG before NMDA (cortical neurons; [6]): completely blocked
- block of the neurotoxic effect of DHPG after NMDA (cortical neurons; [6]): completely blocked
- block of glutamate-induced truncation of mGluR1α (mGluR1α [1]; 1 h): do not block

- block of NMDA-mediated spectrin degradation (spectrin; NVP-AAM077 0.4 μM): not
SMILES: C[C@H](NC(c1cccc2[nH]c(=O)c(=O)[nH]c12)P(=O)(O)O)c1ccc(Br)cc1 (some centres unmarked) [NVP-AAM077]
- block of NMDA-induced truncation of mGluR1α (mGluR1α [1]; NMDA 10 μM, 1 h, NVP-AAM077 0.4 μM): not

SMILES: CC(C)[C@H](NC(=O)OCc1ccccc1)C(=O)N[C@H](C=O)Cc1ccccc1 [calpain inhibitor III] (Cbz-Val-Phe-aldehyde)
- block of NMDA-induced truncation of mGluR1α (mGluR1α [1]; inhibitor pretreatment 2 hours, then NMDA 100 μM 1 h, Calpi3 10 μM): significantly blocked

- block of NMDA-mediated spectrin degradation (spectrin; ifenprodil 10 μM): blocked
SMILES: CC(C(O)c1ccc(O)cc1)N1CCC(Cc2ccccc2)CC1 (centres unmarked) [ifenprodil]
- block of NMDA-induced truncation of mGluR1α (mGluR1α [1]; NMDA 10 μM, 1 h, ifenprodil 10 μM): selectively blocked

SMILES: C=C(C)[C@H]1CN[C@H](C(=O)O)[C@H]1CC(=O)O [kainic acid]
- neuronal damage in hippocampal pyramidal neurons (hippocampal neurons): marked damage
- mGluR1 truncation in hippocampus following kainic acid injection (mGluR1α [5]): rapidly truncated
